# Data: ChEMBL document CHEMBL3885881, “DrugMatrix”
# Organism: Rattus norvegicus
# Assay: DrugMatrix - Regimen: Daily Repeat
# Format: toxicity, organism-based, Sprague-Dawley
# Design: regimen Daily Repeat, gender Male, age 6-8 weeks
# Settings: in vivo, po, route oral GAVAGE, vehicle 100 % WATER; for ABSOLUTE BASOPHIL / ABSOLUTE EOSINOPHIL / ABSOLUTE LYMPHOCYTE / ABSOLUTE MONOCYTE / ABSOLUTE SEGMENTED NEUTROPHIL / BASOPHIL / EOSINOPHIL / ERYTHROCYTE COUNT / HEMATOCRIT / HEMOGLOBIN / LEUKOCYTE COUNT / LYMPHOCYTE / MEAN CORPUSCULAR HEMOGLOBIN / MEAN CORPUSCULAR HEMOGLOBIN CONCENTRATION / MEAN CORPUSCULAR VOLUME / MONOCYTE / NEUTROPHIL / NUCLEATED RED BLOOD CELLS / PLATELET COUNT: tissue Blood; for ALANINE AMINOTRANSFERASE / ALBUMIN / ALKALINE PHOSPHATASE / ASPARTATE AMINOTRANSFERASE / BLOOD UREA NITROGEN / CARBON DIOXIDE / CHLORIDE / CHOLESTEROL / CREATINE PHOSPHOKINASE / CREATININE / GLUCOSE / LACTATE DEHYDROGENASE / LIPASE / PHOSPHORUS / POTASSIUM / SODIUM / TOTAL BILIRUBIN / TOTAL PROTEIN / URIC ACID: tissue Plasma
# [1] = 0 mg/kg, 72 h, dose level Control, time 3 day
# [2] = 0 mg/kg, 120 h, dose level Control, time 5 day
# [3] = 20 mg/kg, 72 h, dose level Low, time 3 day
compound,measurement,setting,value
CN(C)CCC=C1c2ccccc2CCc2ccccc21 [AMITRIPTYLINE],ABSOLUTE BASOPHIL,[1],0 CELLS/uL
same,ABSOLUTE EOSINOPHIL,[1],58.83 CELLS/uL
same,ABSOLUTE LYMPHOCYTE,[1],11823.5 CELLS/uL
same,ABSOLUTE MONOCYTE,[1],169 CELLS/uL
same,ABSOLUTE SEGMENTED NEUTROPHIL,[1],815.33 CELLS/uL
same,BASOPHIL,[1],0%
same,EOSINOPHIL,[1],0.5%
same,ERYTHROCYTE COUNT,[1],5.52 x10E6/uL
same,HEMATOCRIT,[1],35.77%
same,HEMOGLOBIN,[1],14.28 G/DL
same,LEUKOCYTE COUNT,[1],12.87 x10E3/uL
same,LYMPHOCYTE,[1],91.67%
same,MEAN CORPUSCULAR HEMOGLOBIN,[1],25.92 pg
same,MEAN CORPUSCULAR HEMOGLOBIN CONCENTRATION,[1],39.95 G/DL
same,MEAN CORPUSCULAR VOLUME,[1],64.85 fL
same,MONOCYTE,[1],1.33%
same,NEUTROPHIL,[1],6.5%
same,NUCLEATED RED BLOOD CELLS,[1],0 /100WBC
same,PLATELET COUNT,[1],1246.17 x10E3/uL
same,ALANINE AMINOTRANSFERASE,[1],66 u/L
same,ALBUMIN,[1],4.25 G/DL
same,ALKALINE PHOSPHATASE,[1],416 u/L
same,ASPARTATE AMINOTRANSFERASE,[1],106.17 u/L
same,BLOOD UREA NITROGEN,[1],12.67 mg/dL
same,CARBON DIOXIDE,[1],31.83 mmol/L
same,CHLORIDE,[1],102.5 MEQ/L
same,CHOLESTEROL,[1],69 mg/dL
same,CREATINE PHOSPHOKINASE,[1],601.83 u/L
same,CREATININE,[1],0.18 mg/dL
same,GLUCOSE,[1],154.5 mg/dL
same,LACTATE DEHYDROGENASE,[1],301.83 u/L
same,LIPASE,[1],11.17 u/L
same,PHOSPHORUS,[1],12.08 mg/dL
same,POTASSIUM,[1],6.12 MEQ/L
same,SODIUM,[1],145.2 MEQ/L
same,TOTAL BILIRUBIN,[1],0.17 mg/dL
same,TOTAL PROTEIN,[1],6.1 G/DL
same,URIC ACID,[1],1.57 mg/dL
same,ABSOLUTE BASOPHIL,[2],0 CELLS/uL
same,ABSOLUTE EOSINOPHIL,[2],19.33 CELLS/uL
same,ABSOLUTE LYMPHOCYTE,[2],12577.83 CELLS/uL
same,ABSOLUTE MONOCYTE,[2],106.33 CELLS/uL
same,ABSOLUTE SEGMENTED NEUTROPHIL,[2],896.5 CELLS/uL
same,BASOPHIL,[2],0%
same,EOSINOPHIL,[2],0.17%
same,ERYTHROCYTE COUNT,[2],5.84 x10E6/uL
same,HEMATOCRIT,[2],36.88%
same,HEMOGLOBIN,[2],14.48 G/DL
same,LEUKOCYTE COUNT,[2],13.6 x10E3/uL
same,LYMPHOCYTE,[2],92.17%
same,MEAN CORPUSCULAR HEMOGLOBIN,[2],24.85 pg
same,MEAN CORPUSCULAR HEMOGLOBIN CONCENTRATION,[2],39.3 G/DL
same,MEAN CORPUSCULAR VOLUME,[2],63.23 fL
same,MONOCYTE,[2],0.83%
same,NEUTROPHIL,[2],6.83%
same,NUCLEATED RED BLOOD CELLS,[2],0 /100WBC
same,PLATELET COUNT,[2],1223.5 x10E3/uL
same,ALANINE AMINOTRANSFERASE,[2],55.33 u/L
same,ALBUMIN,[2],4.08 G/DL
same,ALKALINE PHOSPHATASE,[2],355.5 u/L
same,ASPARTATE AMINOTRANSFERASE,[2],87.67 u/L
same,BLOOD UREA NITROGEN,[2],15.33 mg/dL
same,CARBON DIOXIDE,[2],33.83 mmol/L
same,CHLORIDE,[2],99.67 MEQ/L
same,CHOLESTEROL,[2],72.17 mg/dL
same,CREATINE PHOSPHOKINASE,[2],268.33 u/L
same,CREATININE,[2],0.15 mg/dL
same,GLUCOSE,[2],152.5 mg/dL
same,LACTATE DEHYDROGENASE,[2],212.67 u/L
same,LIPASE,[2],10.83 u/L
same,PHOSPHORUS,[2],11.65 mg/dL
same,POTASSIUM,[2],6.73 MEQ/L
same,SODIUM,[2],142.43 MEQ/L
same,TOTAL BILIRUBIN,[2],0.23 mg/dL
same,TOTAL PROTEIN,[2],6.07 G/DL
same,URIC ACID,[2],1.7 mg/dL
same,ABSOLUTE BASOPHIL,[3],0 CELLS/uL
same,ABSOLUTE EOSINOPHIL,[3],43.67 CELLS/uL
same,ABSOLUTE LYMPHOCYTE,[3],12245.67 CELLS/uL
same,ABSOLUTE MONOCYTE,[3],111.33 CELLS/uL
same,ABSOLUTE SEGMENTED NEUTROPHIL,[3],1432.67 CELLS/uL
same,BASOPHIL,[3],0%
same,EOSINOPHIL,[3],0.33%
same,ERYTHROCYTE COUNT,[3],5.6 x10E6/uL
same,HEMATOCRIT,[3],36.3%
same,HEMOGLOBIN,[3],14.5 G/DL
same,LEUKOCYTE COUNT,[3],13.83 x10E3/uL
same,LYMPHOCYTE,[3],88.33%
same,MEAN CORPUSCULAR HEMOGLOBIN,[3],25.93 pg
same,MEAN CORPUSCULAR HEMOGLOBIN CONCENTRATION,[3],39.97 G/DL
same,MEAN CORPUSCULAR VOLUME,[3],64.87 fL
same,MONOCYTE,[3],0.67%
same,NEUTROPHIL,[3],10.67%
same,NUCLEATED RED BLOOD CELLS,[3],0 /100WBC
same,PLATELET COUNT,[3],1222 x10E3/uL
same,ALANINE AMINOTRANSFERASE,[3],53 u/L
same,ALBUMIN,[3],4.33 G/DL
same,ALKALINE PHOSPHATASE,[3],377.33 u/L
same,ASPARTATE AMINOTRANSFERASE,[3],92 u/L
same,BLOOD UREA NITROGEN,[3],14.67 mg/dL
same,CARBON DIOXIDE,[3],31.33 mmol/L
same,CHLORIDE,[3],103 MEQ/L
same,CHOLESTEROL,[3],67.33 mg/dL
same,CREATINE PHOSPHOKINASE,[3],466 u/L
same,CREATININE,[3],0.22 mg/dL
same,GLUCOSE,[3],137.33 mg/dL
same,LACTATE DEHYDROGENASE,[3],318.67 u/L
same,LIPASE,[3],12.67 u/L
same,PHOSPHORUS,[3],11.77 mg/dL
same,POTASSIUM,[3],6.47 MEQ/L
same,SODIUM,[3],145.83 MEQ/L
same,TOTAL BILIRUBIN,[3],0.2 mg/dL
same,TOTAL PROTEIN,[3],6.03 G/DL
same,URIC ACID,[3],1.5 mg/dL
